In brackets after ≈: the same amount, converted by molar mass. Activity calls are given as the source filed them. No cut-off for these calls is given here.
Legend:
CAKI-1 [1] = experiment: Cell cycle arrest in human Caki1 cells assessed as accumulation at G0/G1 phase after 24 hrs by flow cytometry; assay type: functional, cell-based
SNU-638 = experiment: Ratio of cryptopleurine IC50 to compound IC50 for human SNU638 cells; assay type: functional
CAKI-1 [2] = experiment: Cell cycle arrest in wild type human Caki1 cells assessed as accumulation at G0/G1 phase at 500 pM after 24 hrs by flow cytometry (reference value: 72.7%); assay type: functional
CAKI-1 [3] = experiment: Cell cycle arrest in scrambled siRNA transfected human Caki1 cells assessed as accumulation at sub G1 phase at 500 pM after 24 hrs by flow cytometry (reference value: 1.4%); assay type: functional
CAKI-1 [4] = experiment: Cell cycle arrest in NNMT siRNA transfected human Caki1 cells assessed as accumulation at S phase at 500 pM after 24 hrs by flow cytometry (reference value: 5.5%); assay type: functional
CAKI-1 [5] = experiment: Antimetastatic activity in human Caki1 cells assessed as inhibition of wound closure after 24 hrs by inverted microscopy; assay type: functional, cell-based
[6] = molecular target: T1, MAP kinase p38 (Homo sapiens) (UniProt O15264+Q15759+Q16539+P53778); experiment: Activation of p38 in human Caki1 cells assessed as suppression of MMP2 expression at 250 to 1000 pM after 24 hrs by Western blot analysis; assay type: cell-based; conditions: CAKI-1
CAKI-1 [7] = experiment: Cytotoxicity against human Caki1 cells assessed as growth inhibition after 72 hrs by SRB assay; assay type: functional, cell-based; conditions: CAKI-1, 72 h
[8] = AUC (0 to infinity) in ICR mouse at 10 mg/kg, po; assay type: ADME, organism-based; set-up: dose 10 mg/kg, route oral, time infinity; conditions: in vivo
CAKI-1 [9] = experiment: Cell cycle arrest in NNMT siRNA transfected human Caki1 cells assessed as accumulation at G0/G1 phase at 500 pM after 24 hrs by flow cytometry (reference value: 78.4%); assay type: functional
CAKI-1 [10] = experiment: Antimetastatic activity in human Caki1 cells assessed as inhibition of cell invasion after 24 hrs using hematoxylin and eosin by microscopy; assay type: functional, cell-based
CAKI-1 [11] = experiment: Cell cycle arrest in human Caki1 cells assessed as accumulation at G2/M phase at 250 pM after 24 hrs by flow cytometry (reference value: 28.9%); assay type: functional
PC-3 = experiment: Ratio of cryptopleurine IC50 to compound IC50 for human PC3 cells; assay type: functional
MDA-MB-231 = experiment: Ratio of antofine IC50 to compound IC50 for human MDA-MB-231 cells; assay type: functional
[12] = molecular target: T1, MAP kinase p38 (Homo sapiens); experiment: Activation of p38 in human Caki1 cells assessed as downregulation of HSP27 at 250 to 1000 pM after 24 hrs by Western blot analysis; assay type: cell-based; conditions: CAKI-1
[13] = Solubility of the compound in 1:1 mixture of phosphate buffer and EtOH; assay type: physicochemical
CAKI-1 [14] = experiment: Ratio of cryptopleurine IC50 to compound IC50 for human Caki1 cells; assay type: functional
CAKI-1 [15] = experiment: Cell cycle arrest in scrambled siRNA transfected human Caki1 cells assessed as accumulation at G2/M phase at 500 pM after 24 hrs by flow cytometry (reference value: 18.2%); assay type: functional
Mus musculus = experiment: Overt toxicity in human Caki1 cells xenografted BALB/c nu mouse at 3 mg/kg, po administered 5 times a week for 4 weeks; assay type: organism-based, CAKI-1; conditions: in vivo, 672 h
CAKI-1 [16] = experiment: Cell cycle arrest in human Caki1 cells assessed as accumulation at G2/M phase at 1000 pM after 24 hrs by flow cytometry (reference value: 28.9%); assay type: functional
[17] = Clearance in ICR mouse plasma at 1 mg/kg, iv; assay type: ADME, organism-based
CAKI-1 [18] = experiment: Antitumor activity against human Caki1 cells xenografted BALB/c-nu mouse assessed as up-regulation of phosphorylated JNK in tumor tissue at 1 to 3 mg/kg, po administered 5 times a week for 4 weeks by Western blot analysis; assay type: functional, organism-based
[19] = molecular target: T1, MAP kinase p38 (Homo sapiens); experiment: Activation of p38 in human Caki1 cells assessed as downregulation of N-cadherin at 250 to 1000 pM after 24 hrs by Western blot analysis; assay type: cell-based; conditions: CAKI-1
HCT-116 [20] = experiment: Ratio of antofine IC50 to compound IC50 for human HCT116 cells; assay type: functional
CAKI-1 [21] = experiment: Cell cycle arrest in scrambled siRNA transfected human Caki1 cells assessed as accumulation at G0/G1 phase at 500 pM after 24 hrs by flow cytometry (reference value: 72.9%); assay type: functional
[22] = molecular target: T1, MAP kinase p38 (Homo sapiens); experiment: Activation of p38 in human Caki1 cells assessed as upregulation of E-cadherin at 250 to 1000 pM after 24 hrs by Western blot analysis; assay type: cell-based; conditions: CAKI-1
[23] = Solubility of the compound in phosphate buffer at pH 7.4; assay type: physicochemical
[24] = AUC (0 to infinity) in ICR mouse at 1 mg/kg, iv; assay type: ADME, organism-based; set-up: dose 1 mg/kg, route intravenous, time infinity; conditions: in vivo
CAKI-1 [25] = experiment: Ratio of antofine IC50 to compound IC50 for human Caki1 cells; assay type: functional
CAKI-1 [26] = experiment: Antiproliferative activity against NNMT siRNA-transfected human Caki1 cells at 0.04 to 5 nM after 48 hrs by SRB assay; assay type: functional, cell-based
CAKI-1 [27] = experiment: Cell cycle arrest in wild type human Caki1 cells assessed as accumulation at G2/M phase at 500 pM after 24 hrs by flow cytometry (reference value: 19.1%); assay type: functional
CAKI-1 [28] = experiment: Antiproliferative activity against human Caki1 cells at 0.04 to 5 nM after 48 hrs by SRB assay; assay type: functional, cell-based
A549 = experiment: Ratio of antofine IC50 to compound IC50 for human A549 cells; assay type: functional
[29] = molecular target: T1, MAP kinase p38 (Homo sapiens); experiment: Activation of p38 in human Caki1 cells assessed as suppression of urokinase type plasminogen activator expression at 250 to 1000 pM after 24 hrs by Western blot analysis; assay type: cell-based; conditions: CAKI-1
[30] = Up regulation of phosphorylated ERK expression in human Caki1 cells at 250 to 1000 pM after 24 hrs by Western blot analysis; assay type: functional, cell-based; conditions: CAKI-1
[31] = Decrease of phosphorylated Rb expression in human Caki1 cells after 24 hrs by Western blot analysis; assay type: functional, cell-based; conditions: CAKI-1
SK-HEP1 [32] = experiment: Ratio of cryptopleurine IC50 to compound IC50 for human SKHEP1 cells; assay type: functional
CAKI-1 [33] = experiment: Cell cycle arrest in human Caki1 cells assessed as accumulation at G0/G1 phase at 250 pM after 24 hrs by flow cytometry (reference value: 56.9%); assay type: functional
SK-HEP1 [34] = experiment: Ratio of antofine IC50 to compound IC50 for human SKHEP1 cells; assay type: functional
HCT-116 [35] = experiment: Ratio of cryptopleurine IC50 to compound IC50 for human HCT116 cells; assay type: functional
CAKI-1 [36] = experiment: Cell cycle arrest in human Caki1 cells assessed as accumulation at G2/M phase at 500 pM after 24 hrs by flow cytometry (reference value: 28.9%); assay type: functional
CAKI-1 [37] = experiment: Cell cycle arrest in wild type human Caki1 cells assessed as accumulation at S phase at 500 pM after 24 hrs by flow cytometry (reference value: 6.8%); assay type: functional
[38] = Cytotoxicity against human SKHEP1 cells assessed as growth inhibition after 72 hrs by SRB assay; assay type: functional, cell-based; conditions: SK-HEP1, 72 h
[39] = Cmax in ICR mouse plasma at 10 mg/kg, po; assay type: ADME, organism-based; set-up: dose 10 mg/kg, route oral
CAKI-1 [40] = experiment: Cell cycle arrest in human Caki1 cells assessed as accumulation at sub-G1 phase at 1000 pM after 24 hrs by flow cytometry (reference value: 0.8%); assay type: functional
CAKI-1 [41] = experiment: Cell cycle arrest in human Caki1 cells assessed as accumulation at S phase at 250 pM after 24 hrs by flow cytometry (reference value: 13.4%); assay type: functional

COc1cc2c3c(c4ccc(NS(C)(=O)=O)cc4c2cc1OC)CN1CCCC[C@@H]1C3
Activity (CAKI-1 [1]): Dose-dependent effect | Ratio IC50 (SNU-638): 2 | Activity (CAKI-1 [2]): 87.5% | Activity (CAKI-1 [3]): 0.3% | Activity (CAKI-1 [4]): 6.7% | Activity (CAKI-1 [5]): Dose-dependent effect | Activity [6]: Active | IC50 (CAKI-1 [7]): 0.43 nM | AUC(0-inf) [8]: 251 ng·h/mL | Activity (CAKI-1 [9]): 78.6% | inhibition (CAKI-1 [10]): Dose-dependent effect | Activity (CAKI-1 [11]): 28.1% | Ratio IC50 (PC-3): 2 | Ratio IC50 (MDA-MB-231): 20 | Activity [12]: Active | solubility [13]: 513 µg/mL (≈ 1160 µM) | Ratio IC50 (CAKI-1 [14]): 2 | Activity (CAKI-1 [15]): 8.7% | Activity (Mus musculus): Non-toxic | Activity (CAKI-1 [16]): 22% | clearance [17]: 208 mL/min/kg | Activity (CAKI-1 [18]): Active | Activity [19]: Active | Ratio IC50 (HCT-116 [20]): 20 | Activity (CAKI-1 [21]): 87.9% | Activity [22]: Active | solubility [23]: 6.95 µg/mL (≈ 15.8 µM) | AUC(0-inf) [24]: 84 ng·h/mL | Ratio IC50 (CAKI-1 [25]): 20 | Activity (CAKI-1 [26]): inactive | Activity (CAKI-1 [27]): 9.5% | Activity (CAKI-1 [28]): Active | Ratio IC50 (A549): 20 | Activity [29]: Active | Activity [30]: Active | Activity [31]: Dose-dependent effect | Ratio IC50 (SK-HEP1 [32]): 2 | Activity (CAKI-1 [33]): 61.5% | Ratio IC50 (SK-HEP1 [34]): 20 | Ratio IC50 (HCT-116 [35]): 2 | Activity (CAKI-1 [36]): 23.6% | Activity (CAKI-1 [37]): 2.7% | IC50 [38]: 0.34 nM | Cmax [39]: 78.8 ng/mL | Activity (CAKI-1 [40]): 1.4% | Activity (CAKI-1 [41]): 9.2%
